Assay results as given in patent publication US8728978B2, “Biocide compositions (IV)” (Cognis IP Management GmbH, priority 2009, dated 2014).

Assay: Solubility of biocides in different solvents at 25° C.
Type: physicochemical
Experimental: Solubility of two fungicides, one herbicide and one insecticide in different solvents at 25° C. was tested.

[1] = solvent: C8-C10 fatty acid dimethylamide (Ex. C3)
[2] = solvent: Lactic acid dimethyl amide (Ex. C4)
[3] = solvent: Levulinic acid tetrahydrofurfuryl ester (Ex. 7)

SMILES	Solubility of biocides [1] [% b.w.]	Solubility of biocides [2] [% b.w.]	Solubility of biocides [3] [% b.w.]
O=C(NC(=O)c1c(F)cccc1F)Nc1ccc(OC(F)(F)C(F)OC(F)(F)F)c(Cl)c1 (stereo not drawn) [Novaluron]	32	22	24
CCOc1cc(Oc2ccc(C(F)(F)F)cc2Cl)ccc1[N+](=O)[O-] [Oxyfluorfen]	31	23	33
